Columns and labels:
[1] = target: T1, human recombinant serotonin (5-Hydroxytryptamine) 5-HT5A receptor (Homo sapiens, UniProt P47898); assay: Serotonin 5-HT5A radioligand binding ([3H]LSD); conditions: compound at 1 μM; CHO-K1 cells; read-out: Serotonin (1 μM) 5-HT5A, percent inhibition of specific binding
T1 construct: expressed in transfected cells; host or cells: CHO-K1 cells
Experimental: To evaluate in radioligand binding assays the activity of compounds of the invention, human recombinant serotonin (5-Hydroxytryptamine) 5-HT5A receptor expressed in Chinese hamster ovary (CHO-K1) cells (Rees, S. et al., FEBS Lett. 355:242, 1994) in a modified Tris-HCl buffer (50 mM Tris-HCl, pH 7.4, 10 mM MgCl2, 0.5 mM EDTA) was used. Compounds of the invention were incubated with 1.7 nM [^3H]Lysergic acid diethylamide (LSD) for 60 minutes at 37° C. Non-specific binding was estimated in the presence of 100 μM Serotonin (5-HT). Receptor proteins were filtered and washed, the filters were then counted to determine [^3H]LSD specifically bound. Compounds were screened at 1 μM or lower, using 1% DMSO as vehicle. Compounds of the invention were tested in this biochemical assay and percent inhibition of specific binding was determined. Biochemical assay results are presented as the percent inhibition of specific binding in Table 7.

[2] = target: T2, human recombinant serotonin (5-Hydroxytryptamine) 5-HT2A receptor (Homo sapiens, UniProt P28223); assay: Serotonin 5-HT2A radioligand binding ([3H]Ketanserin); conditions: compound at 1 μM; CHO-K1 cells; read-out: Serotonin (1 μM) 5-HT2A, percent inhibition of specific binding
T2 construct: expressed in transfected cells; host or cells: CHO-K1 cells
T2 sequence (P28223 whole entry): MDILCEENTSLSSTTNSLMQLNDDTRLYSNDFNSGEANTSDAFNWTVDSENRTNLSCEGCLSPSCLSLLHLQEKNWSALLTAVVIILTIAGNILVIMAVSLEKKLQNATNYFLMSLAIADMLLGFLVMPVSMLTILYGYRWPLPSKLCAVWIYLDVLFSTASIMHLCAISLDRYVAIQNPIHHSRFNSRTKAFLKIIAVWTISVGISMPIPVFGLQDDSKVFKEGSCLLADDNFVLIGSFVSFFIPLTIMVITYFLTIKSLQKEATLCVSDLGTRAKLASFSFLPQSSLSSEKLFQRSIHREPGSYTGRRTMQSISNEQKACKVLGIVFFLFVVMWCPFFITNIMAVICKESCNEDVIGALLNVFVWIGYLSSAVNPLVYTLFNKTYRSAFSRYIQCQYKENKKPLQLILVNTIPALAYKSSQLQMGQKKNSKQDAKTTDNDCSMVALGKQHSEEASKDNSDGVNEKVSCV
Experimental: To evaluate in radioligand binding assays the activity of compounds of the invention, human recombinant serotonin (5-Hydroxytryptamine) 5-HT2A receptor expressed in Chinese hamster ovary (CHO-K1) cells (Bonhaus, D. W. et al. Br. J. Pharmacol. 115:622, 1995; Saucier, C. and Albert, P. R., J. Neurochem. 68:1998, 1997) in a 50 mM Tris-HCl buffer, pH 7.4, was used. Compounds of the invention were incubated with 0.5 nM [^3H]Ketanserin for 60 minutes at 25° C. Non-specific binding was estimated in the presence of 1 μM Mianserin. Receptor proteins were filtered and washed, the filters were then counted to determine [^3H] Ketanserin specifically bound. Compounds were screened at 1 μM or lower, using 1% DMSO as vehicle. Biochemical assay results are presented as the percent inhibition of specific binding in Table 7.

[3] = target: T3, human recombinant serotonin (5-Hydroxytryptamine) 5-HT7 receptor (Homo sapiens, UniProt P34969); assay: Serotonin 5-HT7 radioligand binding ([3H]LSD); conditions: compound at 1 μM; CHO cells; read-out: Serotonin (1 μM) 5-HT7, percent inhibition of specific binding
T3 construct: expressed in transfected cells; host or cells: CHO cells
T3 sequence (P34969 whole entry): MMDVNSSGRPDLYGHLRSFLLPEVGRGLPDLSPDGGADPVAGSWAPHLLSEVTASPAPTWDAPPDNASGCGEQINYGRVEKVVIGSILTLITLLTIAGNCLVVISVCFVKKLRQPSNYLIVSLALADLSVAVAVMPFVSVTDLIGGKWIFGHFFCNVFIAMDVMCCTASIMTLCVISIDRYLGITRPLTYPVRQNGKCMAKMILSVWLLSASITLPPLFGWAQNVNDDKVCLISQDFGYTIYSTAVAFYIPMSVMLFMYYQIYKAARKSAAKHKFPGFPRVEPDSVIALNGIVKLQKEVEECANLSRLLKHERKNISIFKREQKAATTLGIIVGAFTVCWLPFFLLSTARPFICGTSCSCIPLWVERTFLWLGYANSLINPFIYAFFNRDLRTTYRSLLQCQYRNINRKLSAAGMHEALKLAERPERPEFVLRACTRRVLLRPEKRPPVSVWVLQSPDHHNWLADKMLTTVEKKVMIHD
Experimental: To evaluate in radioligand binding assays the activity of compounds of the invention, human recombinant serotonin (5-Hydroxytryptamine) 5-HT7 receptor expressed in Chinese hamster ovary (CHO) cells (Roth, B. L. et al., J. Pharmacol. Exp. Ther. 268:1403, 1994; Shen, Y. et al., J. Biol. Chem. 268:18200, 1993) in a modified Tris-HCl buffer (50 mM Tris-HCl, pH 7.4, 10 mM MgCl2, 0.5 mM EDTA) was used. Compounds of invention were incubated with 5.5 nM [^3H] Lysergic acid diethylamide (LSD) for 2 hours at 25° C. Non-specific binding was estimated in the presence of 10 μM Serotonin (5-HT). Receptor proteins were filtered and washed, the filters were then counted to determine [^3H]LSD specifically bound. Compounds were screened at 1 μM or lower, using 1% DMSO as vehicle. Biochemical assay results are presented as the percent inhibition of specific binding in Table 7.

[4] = target: T4, human recombinant serotonin (5-Hydroxytryptamine) 5-HT2B receptor (Homo sapiens, UniProt P41595); assay: Serotonin 5-HT2B radioligand binding ([3H]LSD); conditions: compound at 1 μM; CHO-K1 cells; read-out: Serotonin (1 μM) 5-HT2B, percent inhibition of specific binding
T4 construct: expressed in transfected cells; host or cells: CHO-K1 cells
T4 sequence (P41595 whole entry): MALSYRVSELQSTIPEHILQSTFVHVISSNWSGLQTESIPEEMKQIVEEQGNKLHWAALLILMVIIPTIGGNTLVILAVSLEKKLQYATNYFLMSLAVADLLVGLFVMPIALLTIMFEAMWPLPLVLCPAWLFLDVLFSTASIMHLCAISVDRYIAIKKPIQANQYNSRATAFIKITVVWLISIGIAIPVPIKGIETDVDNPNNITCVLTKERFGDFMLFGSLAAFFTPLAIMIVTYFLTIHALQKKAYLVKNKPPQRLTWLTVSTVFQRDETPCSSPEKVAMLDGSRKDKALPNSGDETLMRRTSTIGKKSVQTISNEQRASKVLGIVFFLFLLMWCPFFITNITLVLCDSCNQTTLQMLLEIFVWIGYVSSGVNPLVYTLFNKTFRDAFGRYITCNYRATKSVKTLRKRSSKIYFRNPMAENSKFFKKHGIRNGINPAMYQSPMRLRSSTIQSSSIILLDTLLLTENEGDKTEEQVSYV
Experimental: To evaluate in radioligand binding assays the activity of compounds of the invention, human recombinant serotonin (5-Hydroxytryptamine) 5-HT2B receptor expressed in Chinese hamster ovary (CHO-K1) cells (Bonhaus, D. W. et al., Br. J. Pharmacol. 115:622, 1995) in a modified Tris-HCl buffer (50 mM Tris-HCl, pH 7.4, 4 mM CaCl2, 0.1% Ascorbic Acid) was used. Compounds of invention were incubated with 1.2 nM [^3H]Lysergic acid diethylamide (LSD) for 60 minutes at 37° C. Non-specific binding was estimated in the presence of 10 μM Serotonin (5-HT). Receptor proteins were filtered and washed, the filters were then counted to determine [^3H]LSD specifically bound. Compounds were screened at 1 μM or lower, using 1% DMSO as vehicle. Compounds of the invention were tested in this biochemical assay and percent inhibition of specific binding was determined. Biochemical assay results are presented as the percent inhibition of specific binding in Table 7.

[5] = tested on: rat central imidazoline I2 receptor; assay: Central imidazoline I2 radioligand binding ([3H]Idazoxan); conditions: compound at 1 μM; Wistar Rat cerebral cortex
Experimental: To evaluate in radioligand binding assays the activity of compounds of the invention, rat central imidazoline I2 receptor obtained from Wistar Rat cerebral cortex (Brown, C. M. et al., Br. J. Pharmacol. 99:803, 1990) in a modified Tris-HCl buffer (50 mM Tris-HCl buffer, pH 7.4, 0.5 mM EDTA) was used. Compounds of the invention were incubated with 2 nM [^3H]Idazoxan for 30 minutes at 25° C. Non-specific binding was estimated in the presence of 1 μM Idazoxan. Receptor proteins were filtered and washed, the filters were then counted to determine [^3H]Idazoxan specifically bound. Compounds were screened at 1 μM or lower, using 1% DMSO as vehicle. Compounds of the invention were tested in this biochemical assay and percent inhibition of specific binding was determined. Biochemical assay results are presented as the percent inhibition of specific binding in Table 5.

[6] = target: T5, human recombinant histamine H1 receptor (Homo sapiens, UniProt P35367); assay: Histamine H1 radioligand binding ([3H]Pyrilamine); conditions: compound at 1 μM; CHO cells; read-out: Histamine Binding (1 μM) H1, percent inhibition of specific binding
T5 construct: expressed in transfected cells; host or cells: CHO cells
T5 sequence (P35367 whole entry): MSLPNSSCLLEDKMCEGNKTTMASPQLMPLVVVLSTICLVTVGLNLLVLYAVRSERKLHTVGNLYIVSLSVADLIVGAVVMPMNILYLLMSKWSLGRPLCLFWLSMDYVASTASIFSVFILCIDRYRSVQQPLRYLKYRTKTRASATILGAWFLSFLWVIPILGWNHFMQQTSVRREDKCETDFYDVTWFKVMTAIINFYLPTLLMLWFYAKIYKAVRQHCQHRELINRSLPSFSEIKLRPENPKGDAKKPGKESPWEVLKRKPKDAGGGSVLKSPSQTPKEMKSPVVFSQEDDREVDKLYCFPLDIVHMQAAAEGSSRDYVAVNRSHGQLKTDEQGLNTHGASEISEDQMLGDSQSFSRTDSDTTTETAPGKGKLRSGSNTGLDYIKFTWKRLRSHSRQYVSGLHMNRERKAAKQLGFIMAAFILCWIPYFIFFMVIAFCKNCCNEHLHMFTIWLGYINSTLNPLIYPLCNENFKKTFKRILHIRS
Method in brief: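 Recombinant human H1 receptor expressed in CHO cells, in Tris-HCl pH 7.4 with MgCl2, NaCl and sucrose, incubated with 1.2 nM [3H]pyrilamine for 180 min at 25 °C; non-specific binding defined with 1 μM pyrilamine. Compounds tested at 1 μM in 1% DMSO; filter-bound counts give percent inhibition of specific binding.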

T1 sequence (P47898 whole entry): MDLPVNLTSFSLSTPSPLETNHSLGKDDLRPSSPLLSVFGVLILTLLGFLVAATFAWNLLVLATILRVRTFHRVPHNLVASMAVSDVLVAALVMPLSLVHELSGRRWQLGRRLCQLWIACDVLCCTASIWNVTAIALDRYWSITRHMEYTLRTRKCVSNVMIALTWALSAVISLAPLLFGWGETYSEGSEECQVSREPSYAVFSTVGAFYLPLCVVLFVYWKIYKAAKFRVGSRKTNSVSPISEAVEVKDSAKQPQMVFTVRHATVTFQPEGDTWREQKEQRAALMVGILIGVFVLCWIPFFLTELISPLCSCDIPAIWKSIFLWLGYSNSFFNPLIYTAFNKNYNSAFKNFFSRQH

Structure (SMILES) | inhibition at 1 µM [1] [%] | inhibition at 1 µM [2] [%] | inhibition at 1 µM [3] [%] | inhibition at 1 µM [4] [%] | Imidazoline I2 Central (1 μM), percent inhibition of specific binding [5] [%] | inhibition at 1 µM [6] [%]
Cc1ccc2c(c1)c1c(n2CCNC(=O)OCC(Cl)(Cl)Cl)CCN(C)C1 [Compound 8, 2,2,2-trichloroethyl 2-(1,2,3,4-tetrahydro-2,8-dimethylpyrido[4,3-b]indol-5-yl)ethylcarbamate] | 60 | 99 | 75 | 64 | 57 | 101
CNC(=O)CCn1c2c(c3cc(C)ccc31)CN(C)CC2 [Compound 1, 3-(1,2,3,4-tetrahydro-2,8-dimethylpyrido[4,3-b]indol-5-yl)-N-methylpropanamide] | 4 | 30 | 33 | 23 | 18 | 34
Cc1ccc2c(c1)c1c(n2CC#N)CCN(C)C1 [CD61, 2-(1,2,3,4-tetrahydro-2,8-dimethylpyrido[4,3-b]indol-5-yl)acetonitrile] | 52 | 77 | 94 | 43 | 60 | 98
